Results published in ChEMBL document CHEMBL1154350 (Bioorg Med Chem Lett, 2009).
Calls of active or inactive are those of the source. No cut-off for these calls is given here.

Tests used:
[1] = target: T1, Succinyl-diaminopimelate desuccinylase (Haemophilus influenzae (strain ATCC 51907 / DSM 11121 / KW20 / Rd), UniProt P44514); experiment: Inhibition of Haemophilus influenzae recombinant DapE
T1 sequence (P44514 whole entry): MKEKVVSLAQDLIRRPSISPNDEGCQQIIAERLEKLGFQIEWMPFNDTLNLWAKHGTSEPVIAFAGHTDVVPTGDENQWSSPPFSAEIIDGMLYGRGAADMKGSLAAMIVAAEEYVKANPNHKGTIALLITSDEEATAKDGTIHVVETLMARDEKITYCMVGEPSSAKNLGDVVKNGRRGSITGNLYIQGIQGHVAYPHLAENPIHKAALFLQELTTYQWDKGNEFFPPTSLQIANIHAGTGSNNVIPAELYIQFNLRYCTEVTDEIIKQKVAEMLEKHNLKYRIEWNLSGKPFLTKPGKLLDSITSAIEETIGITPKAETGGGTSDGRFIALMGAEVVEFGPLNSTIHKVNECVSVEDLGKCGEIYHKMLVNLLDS

[2] = target: T1, Succinyl-diaminopimelate desuccinylase; experiment: Inhibition of Haemophilus influenzae recombinant DapE by non-competitive binding assay
[3] = target: T1, Succinyl-diaminopimelate desuccinylase; experiment: Inhibition of Haemophilus influenzae recombinant DapE by competitive binding assay
Escherichia coli [4] = experiment: Antibacterial activity against Escherichia coli at 1 mg by antibiotic plate assay; type: functional, organism-based
Escherichia coli [5] = experiment: Antibacterial activity against Escherichia coli at 5 mg by antibiotic plate assay; type: functional, organism-based
Escherichia coli [6] = experiment: Antibacterial activity against Escherichia coli at 20 mg by antibiotic plate assay; type: functional, organism-based

| SMILES | IC50 [1] | also measured |
| --- | --- | --- |
| O=C(O)CCCS | 43 µM |  |
| NC(=S)Nc1ccccc1 [PHENYLTHIOUREA] | > 100 µM |  |
| O=C(O)CCP(=O)(O)O | 1620 µM | Ki [1]: 800 µM |
| CCOC(=O)[C@H](CCc1ccccc1)N[C@@H](C)C(=O)N1CCC[C@H]1C(=O)O | > 1000 µM |  |
| CC(=O)NO [ACETOHYDROXAMIC ACID] | > 1000 µM |  |
| C[C@H](CS)C(=O)N1CCC[C@H]1C(=O)O |  | Activity (Escherichia coli [4]): Active; Activity (Escherichia coli [5]): Active; Activity (Escherichia coli [6]): Active |

Second part, led by results:

| IC50 [1] | SMILES | also measured |
| --- | --- | --- |
| > 1000 µM | O=C(NO)OCc1ccccc1 |  |
| 92 µM | OB(O)c1cccs1 | Ki [2]: 67 µM |
| 13.7 µM | CC(C)(S)[C@H](N)C(=O)O | Ki [3]: 4.6 µM |
| > 10000 µM | O=C(O)c1ccc(B(O)O)cc1 |  |
| 34 µM | O=C(O)c1cccc(S)c1 |  |
| > 10000 µM | O=C(O)c1cccc(B(O)O)c1 |  |
| ~10000 µM | CCCCB(O)O [BUTYL BORONIC ACID] |  |
| 50 µM | CC(C)(S)[C@@H](N)C(=O)O [PENICILLAMINE] |  |
